{
  "source": "patent US7338799B2",
  "about": "(Vanderbilt University, priority 2001, dated 2008)",
  "key": {"hCHT [1]": {"molecular_target": "T1, hCHT (Homo sapiens, UniProt Q9GZV3)", "T1 construct": "The hCHT cDNA encodes a protein of 580 amino acids; expressed in transfected cells; host or cells: COS-7 (transient, FuGene 6, pcDNA3)", "T1 sequence (Q9GZV3 1-580)": "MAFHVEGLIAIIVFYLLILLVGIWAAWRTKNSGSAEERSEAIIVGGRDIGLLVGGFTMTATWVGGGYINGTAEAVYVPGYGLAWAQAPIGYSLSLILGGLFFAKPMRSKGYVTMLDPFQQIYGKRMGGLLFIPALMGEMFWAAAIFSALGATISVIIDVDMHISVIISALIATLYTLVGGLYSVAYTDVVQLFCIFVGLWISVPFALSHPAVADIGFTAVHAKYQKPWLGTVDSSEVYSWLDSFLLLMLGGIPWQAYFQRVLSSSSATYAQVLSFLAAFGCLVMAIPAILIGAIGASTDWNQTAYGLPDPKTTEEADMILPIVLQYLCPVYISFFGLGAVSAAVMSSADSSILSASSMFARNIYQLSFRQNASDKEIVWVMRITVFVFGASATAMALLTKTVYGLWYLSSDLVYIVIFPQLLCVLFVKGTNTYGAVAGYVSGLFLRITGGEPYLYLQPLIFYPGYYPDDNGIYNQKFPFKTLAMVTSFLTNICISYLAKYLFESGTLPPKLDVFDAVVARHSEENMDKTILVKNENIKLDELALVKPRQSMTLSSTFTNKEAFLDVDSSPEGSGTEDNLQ", "assay": "[3H]HC-3 radioligand binding in membrane fractions of hCHT transfected COS-7 cells", "settings": "for Ki: 10 nM [3H]HC-3, hCHT transfected COS-7 cell membranes, read-out: Ki in inhibiting [3H]HC-3 binding", "description": "COS-7 cells were transfected with a pcDNA3 vector containing hCHT cDNA using the FuGene 6 transfection reagent (Roche Diagnostics) following the manufacturer's protocols. Briefly, COS-7 cells were cultured in Dulbecco's modified Eagles' medium (DMEM) supplemented with 10% fetal bovine serum (Hyclone), 100 μg/ml of penicillin and streptomycin at a density of 3-4 million cells in 150 mm culture dishes or 5×10^4 cells per well in 24 well dishes (Falcon). After 24 hr, cells were transfected and 48 hr later, the cells were harvested and processed for membrane binding and whole cell or vesicle transport assays.\nMonolayers of hCHT transfected COS-7 cells were washed with 30 ml of HTE buffer and harvested in 10 ml of homogenization buffer (0.32 M sucrose in HTE buffer). Cells were homogenized at 20,000 rpm for 25 sec using a Polytron tissue homogenizer (Brinkman). The homogenate was centrifuged at 100,000×g for 45 min at 4° C. The resulting pellet was suspended in 2 ml of HTE buffer, assayed for protein content (Bradford method; BioRad) and 50 μg of the membrane suspension (1 μg/μl) was transferred to each tube in triplicate. Unless otherwise indicated, all binding assays were performed in the presence of 150 mM NaCl in HTE buffer. Assays were initiated by the addition of [^3H]HC-3 (127 Ci per mmol; NEN Life Science Products, 10 nM final concentration). After a 1 hr incubation at room temperature, membranes were rapidly filtered through glass fiber GF/B filters (Brandel) soaked in 0.3% polyethylenimine (Sigma) in HTE buffer and accumulated radioactivity was quantified using liquid scintillation spectrometry (Packard). To test the ion dependence of hCHT binding activity, Na^+ was replaced in the assay buffer with equimolar concentrations of Li^+ whereas Cl^− was replaced with equimolar concentrations of isethionate. Non-specific binding was quantified by measuring [^3H] […] Data for binding and transport assays (see below) were analyzed using nonlinear least squares curve fitting and Scatchard transformations (Kaleidagraph, Abelbeck)."}, "hCHT [2]": {"molecular_target": "T1, hCHT", "assay": "[3H]choline transport in resealed membrane vesicles from hCHT transfected COS-7 cells", "assay_type": "biochemical", "description": "To assay CHT activity in resealed membrane vesicles from hCHT-transfected mammalian cells, the inventors transiently transfected COS-7 cells with hCHT as described herein above and prepared membrane fractions as described for binding assays. After obtaining the membrane fractions, resealed membrane vesicles were prepared as described by Fisher et al., 1992 (Fishe et al., 1992) with slight modifications. The membrane pellets were resuspended in 2 ml of HTE buffer (˜2 μg/μl) and the suspension was rotated gently at 4° C. for 45 min. Membrane vesicle suspensions were centrifuged (27,000×g) for 20 min at 4° C. and the resulting pellet suspended in 2 ml of Na^+ and Cl^− free HTE buffer. Protein content of the suspension was determined (Bradford; BioRad) and 50 μg of the vesicle suspension (1 μg/μl) was transferred to each tube for triplicate assays. […] After a 5 min incubation at room temperature, vesicles were rapidly filtered through Whatman GF/B filters soaked in 0.3% polyethylenimine in HTE buffer and the accumulated radioactivity quantified as described for binding assays. […] In all experiments, non-specific uptake was quantified by determining uptake in the presence of 1 μM HC-3 and subtracted from the total uptake to yield specific transport."}, "mCHT [3]": {"molecular_target": "T2, mCHT (Mus musculus, UniProt Q8BGY9, Q119K/Q86H)", "T2 construct": "expressed in transfected cells; host or cells: COS-7 (transient, pcDNA3)", "T2 sequence (Q8BGY9 with tags, fused parts or gaps Q86H/Q119K)": "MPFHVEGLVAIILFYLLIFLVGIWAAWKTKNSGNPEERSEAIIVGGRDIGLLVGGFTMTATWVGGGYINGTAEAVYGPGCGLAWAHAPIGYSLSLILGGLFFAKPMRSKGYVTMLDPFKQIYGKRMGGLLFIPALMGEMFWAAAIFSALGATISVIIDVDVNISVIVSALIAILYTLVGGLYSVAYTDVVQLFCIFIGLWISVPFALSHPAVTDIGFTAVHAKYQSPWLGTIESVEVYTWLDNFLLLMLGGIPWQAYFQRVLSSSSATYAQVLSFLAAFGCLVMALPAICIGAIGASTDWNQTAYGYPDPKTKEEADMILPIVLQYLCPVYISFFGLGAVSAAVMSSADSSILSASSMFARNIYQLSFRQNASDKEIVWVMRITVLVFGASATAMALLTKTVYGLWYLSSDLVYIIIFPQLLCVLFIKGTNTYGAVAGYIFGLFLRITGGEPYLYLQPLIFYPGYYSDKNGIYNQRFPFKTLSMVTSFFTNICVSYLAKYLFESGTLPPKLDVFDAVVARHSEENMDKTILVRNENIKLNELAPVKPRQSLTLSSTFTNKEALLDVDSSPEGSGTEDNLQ", "assay": "[3H]HC-3 binding in membrane fractions of mCHT transfected COS-7 cells", "settings": "for Ki: mCHT transfected COS-7 cell membrane, read-out: Ki in inhibiting [3H]HC-3 binding"}, "mCHT [4]": {"molecular_target": "T2, mCHT", "assay": "choline uptake in resealed membrane vesicles from mCHT transfected COS-7 cells", "assay_type": "biochemical", "settings": "for IC50: resealed membrane vesicles, mCHT"}, "[5]": {"substrate": "C[N+](C)(C)CCO", "assay": "cells, lysate or membranes named"}},
  "note": "Read-outs that look alike come from different tables or passages of the source.",
  "data": [
    {"molecule": "CC(=O)OCC[N+](C)(C)C", "note": "[ACh, acetylcholine]", "values": [
      {"measurement": "Ki", "setting": "hCHT [1]; ACh in the presence of 10 μM physostigmine", "result": 433000, "unit": "nM"},
      {"measurement": "Ki", "setting": "hCHT [2]", "result": 570, "unit": "nM"},
      {"measurement": "Ki", "setting": "mCHT [3]; ACh in the presence of physostigmine", "result": 433000, "unit": "nM"}
    ]},
    {"molecule": "C[N+]1(C)CCOC(O)(c2ccc(-c3ccc(C4(O)C[N+](C)(C)CCO4)cc3)cc2)C1.[Br-].[Br-]", "note": "(stereo not drawn) [HC-3, hemicholinium-3]", "values": [
      {"measurement": "Ki", "setting": "hCHT [1]", "result": 4, "unit": "nM"},
      {"measurement": "Hill coefficient of [3H]HC-3 binding", "setting": "hCHT [1]; single site kinetics", "result": 0.99},
      {"measurement": "effect of addition of HC-3 on [3H]choline uptake", "setting": "hCHT [2]; hCHT vesicles against vector transfected controls, data not shown", "result": "reduced [^3H]choline uptake to levels seen in vector transfected COS-7 membrane vesicles"},
      {"measurement": "Ki", "setting": "hCHT [2]; read-out: Ki for inhibition of [3H]choline uptake, resealed membrane vesicles, hCHT, 20 nM [3H]choline", "result": 5, "unit": "nM"},
      {"measurement": "effect on choline uptake", "setting": "mCHT [4]; 1 μM HC-3, mCHT vesicles against vector transfected", "result": "reduced choline uptake to levels seen in vector transfected COS-7 membrane vesicles"},
      {"measurement": "IC50", "setting": "mCHT [4]; read-out: IC50 for inhibition of mCHT-mediated choline uptake", "result": 5, "unit": "nM"},
      {"measurement": "Kd", "setting": "mCHT [3]; Scatchard transformation, mCHT expressing membranes, read-out: equilibrium dissociation constant (Kd) of [3H]HC-3 binding", "result": 5, "unit": "nM"},
      {"measurement": "Ki", "setting": "mCHT [3]", "result": 5, "unit": "nM"}
    ]},
    {"molecule": "C[N+](C)(C)CCO", "note": "[choline]", "values": [
      {"measurement": "Ki", "setting": "hCHT [2]", "result": 123, "unit": "nM"},
      {"measurement": "IC50", "setting": "mCHT [4]", "result": 123, "unit": "nM"}
    ]},
    {"molecule": "hCHT (Homo sapiens) (protein) MAFHVEGLIAIIVFYLLILLVGIWAAWRTKNSGSAEERSEAIIVGGRDIGLLVGGFTMTATWVGGGYINGTAEAVYVPGYGLAWAQAPIGYSLSLILGGLFFAKPMRSKGYVTMLDPFQQIYGKRMGGLLFIPALMGEMFWAAAIFSALGATISVIIDVDMHISVIISALIATLYTLVGGLYSVAYTDVVQLFCIFVGLWISVPFALSHPAVADIGFTAVHAKYQKPWLGTVDSSEVYSWLDSFLLLMLGGIPWQAYFQRVLSSSSATYAQVLSFLAAFGCLVMAIPAILIGAIGASTDWNQTAYGLPDPKTTEEADMILPIVLQYLCPVYISFFGLGAVSAAVMSSADSSILSASSMFARNIYQLSFRQNASDKEIVWVMRITVFVFGASATAMALLTKTVYGLWYLSSDLVYIVIFPQLLCVLFVKGTNTYGAVAGYVSGLFLRITGGEPYLYLQPLIFYPGYYPDDNGIYNQKFPFKTLAMVTSFLTNICISYLAKYLFESGTLPPKLDVFDAVVARHSEENMDKTILVKNENIKLDELALVKPRQSMTLSSTFTNKEAFLDVDSSPEGSGTEDNLQ", "values": [
      {"measurement": "Km", "setting": "[5]; other: resealed membrane vesicles, hCHT", "result": 1.6, "unit": "µM"}
    ]},
    {"molecule": "mCHT (Mus musculus; Q119K/Q86H) (protein) MPFHVEGLVAIILFYLLIFLVGIWAAWKTKNSGNPEERSEAIIVGGRDIGLLVGGFTMTATWVGGGYINGTAEAVYGPGCGLAWAHAPIGYSLSLILGGLFFAKPMRSKGYVTMLDPFKQIYGKRMGGLLFIPALMGEMFWAAAIFSALGATISVIIDVDVNISVIVSALIAILYTLVGGLYSVAYTDVVQLFCIFIGLWISVPFALSHPAVTDIGFTAVHAKYQSPWLGTIESVEVYTWLDNFLLLMLGGIPWQAYFQRVLSSSSATYAQVLSFLAAFGCLVMALPAICIGAIGASTDWNQTAYGYPDPKTKEEADMILPIVLQYLCPVYISFFGLGAVSAAVMSSADSSILSASSMFARNIYQLSFRQNASDKEIVWVMRITVLVFGASATAMALLTKTVYGLWYLSSDLVYIIIFPQLLCVLFIKGTNTYGAVAGYIFGLFLRITGGEPYLYLQPLIFYPGYYSDKNGIYNQRFPFKTLSMVTSFFTNICVSYLAKYLFESGTLPPKLDVFDAVVARHSEENMDKTILVRNENIKLNELAPVKPRQSLTLSSTFTNKEALLDVDSSPEGSGTEDNLQ", "values": [
      {"measurement": "Km", "setting": "[5]; other: Eadie-Hofstee plot, single site, mCHT vesicles", "result": 2, "unit": "µM"}
    ]}
  ]
}
